Assay results published in ChEMBL document CHEMBL1201861, “Genomics of Drug Sensitity in Cancer screening data, Wellcome Trust Sanger Institute”.

Assays:
Assay in all cases: cells
Assay type in all cases: functional, cell-based, Homo sapiens
EGI-1 = conditions: Homo sapiens, EGI-1;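 further: cell viability readout used to gauge growth inhibition of EGI-1 cells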
Description: SANGER: Inhibition of human EGI-1 cell growth in a cell viability assay.

COLO-741 = conditions: Homo sapiens, COLO-741
Description: SANGER: Inhibition of human COLO-741 cell growth in a cell viability assay.

U-118-MG = conditions: Homo sapiens, U-118-MG
Description: SANGER: Inhibition of human U-118-MG cell growth in a cell viability assay.

NCI-H1155 = conditions: Homo sapiens, NCI-H1155;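 further: cell growth inhibition measured by a viability assay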
Description: SANGER: Inhibition of human NCI-H1155 cell growth in a cell viability assay.

ChaGo-K-1 = conditions: Homo sapiens, ChaGo-K-1;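 further: growth inhibition of ChaGo-K-1 cells, read out with a cell viability assay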
Description: SANGER: Inhibition of human ChaGo-K-1 cell growth in a cell viability assay.

BHY = conditions: Homo sapiens, BHY;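 further: cell growth inhibition read out by a viability assay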
Description: SANGER: Inhibition of human BHY cell growth in a cell viability assay.

NCI-H1355 = conditions: Homo sapiens, NCI-H1355;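 further: growth inhibition of human NCI-H1355 cells, read out by a cell viability assay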
Description: SANGER: Inhibition of human NCI-H1355 cell growth in a cell viability assay.

A101D = conditions: Homo sapiens, A101D;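 further: growth inhibition of the cell line, measured with a viability assay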
Description: SANGER: Inhibition of human A101D cell growth in a cell viability assay.

Panc1005 = conditions: Homo sapiens, Panc1005;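 further: growth inhibition of human PANC-10-05 cells, measured by a cell viability assay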
Description: SANGER: Inhibition of human PANC-10-05 cell growth in a cell viability assay.

CAPAN-1 = conditions: Homo sapiens, CAPAN-1;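 further: growth suppression of CAPAN-1 cells, read out by a cell viability assay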
Description: SANGER: Inhibition of human CAPAN-1 cell growth in a cell viability assay.

LAN-6 = conditions: Homo sapiens, LAN-6;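 further: growth inhibition of LAN-6 cells, determined with a cell viability assay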
Description: SANGER: Inhibition of human LAN-6 cell growth in a cell viability assay.

GI-ME-N = conditions: Homo sapiens, GI-ME-N;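 further: growth inhibition of human GI-ME-N cells, read out with a cell viability assay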
Description: SANGER: Inhibition of human GI-ME-N cell growth in a cell viability assay.

KP-4 = conditions: Homo sapiens, KP-4;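 further: human KP-4 cells, with growth inhibition read out through a cell viability assay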
Description: SANGER: Inhibition of human KP-4 cell growth in a cell viability assay.

LB1047-RCC = conditions: Homo sapiens, LB1047-RCC;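 further: inhibition of cell growth, determined with a cell viability assay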
Description: SANGER: Inhibition of human LB1047-RCC cell growth in a cell viability assay.

NCI-H69 = conditions: Homo sapiens, NCI-H69;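 further: growth inhibition of the cell line, read out with a cell viability assay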
Description: SANGER: Inhibition of human NCI-H69 cell growth in a cell viability assay.

HD-MY-Z = conditions: Homo sapiens, HD-MY-Z;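 further: growth inhibition of HD-MY-Z cells, read out with a cell viability assay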
Description: SANGER: Inhibition of human HD-MY-Z cell growth in a cell viability assay.

NOS-1 = conditions: Homo sapiens, NOS-1;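 further: growth inhibition of the human NOS-1 cell line, read out with a cell viability assay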
Description: SANGER: Inhibition of human NOS-1 cell growth in a cell viability assay.

NCI-H1650 = conditions: Homo sapiens, NCI-H1650;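 further: growth inhibition of human NCI-H1650 cells measured by a cell viability assay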
Description: SANGER: Inhibition of human NCI-H1650 cell growth in a cell viability assay.

A-375 = conditions: Homo sapiens, A-375;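 further: growth inhibition of A375 cells, read out with a cell viability assay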
Description: SANGER: Inhibition of human A375 cell growth in a cell viability assay.

DU-4475 = conditions: Homo sapiens, DU-4475
Description: SANGER: Inhibition of human DU-4475 cell growth in a cell viability assay.

Ca9-22 = conditions: Homo sapiens, Ca9-22;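 further: growth inhibition of Ca9-22 cells, read out with a cell viability assay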
Description: SANGER: Inhibition of human Ca9-22 cell growth in a cell viability assay.

5637 = conditions: Homo sapiens
Description: SANGER: Inhibition of human 5637 cell growth in a cell viability assay.

GP5d = conditions: Homo sapiens, GP5d;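 further: growth inhibition of human GP5d cells, read out with a cell viability assay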
Description: SANGER: Inhibition of human GP5d cell growth in a cell viability assay.

COR-L105 = conditions: Homo sapiens, COR-L105;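 further: cell growth inhibition determined with a viability assay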
Description: SANGER: Inhibition of human COR-L105 cell growth in a cell viability assay.

WM-115 = conditions: Homo sapiens, WM-115
Description: SANGER: Inhibition of human WM-115 cell growth in a cell viability assay.

NCI-H82 = conditions: Homo sapiens, NCI-H82;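 further: growth inhibition of NCI-H82 cells, measured with a cell viability readout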
Description: SANGER: Inhibition of human NCI-H82 cell growth in a cell viability assay.

NCI-H1623 = conditions: Homo sapiens, NCI-H1623;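 further: cell viability assay used as the read-out for growth inhibition of NCI-H1623 cells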
Description: SANGER: Inhibition of human NCI-H1623 cell growth in a cell viability assay.

NCI-H1437 = conditions: Homo sapiens, NCI-H1437;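 further: growth inhibition of human NCI-H1437 cells, read out by a cell viability assay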
Description: SANGER: Inhibition of human NCI-H1437 cell growth in a cell viability assay.

RS4-11 = conditions: Homo sapiens, RS4-11;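 further: growth inhibition of RS4-11 cells, read out by a cell viability assay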
Description: SANGER: Inhibition of human RS4-11 cell growth in a cell viability assay.

AGS = conditions: Homo sapiens, AGS;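 further: growth inhibition of AGS cells, determined with a cell viability assay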
Description: SANGER: Inhibition of human AGS cell growth in a cell viability assay.

NCI-H1573 = conditions: Homo sapiens, NCI-H1573;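 further: growth inhibition of NCI-H1573 cells, read out with a cell viability assay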
Description: SANGER: Inhibition of human NCI-H1573 cell growth in a cell viability assay.

SCC-9 = conditions: Homo sapiens, SCC-9;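 further: Read-out is a cell viability assay, with values giving inhibition of cell growth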
Description: SANGER: Inhibition of human SCC-9 cell growth in a cell viability assay.

BB49-HNC = conditions: Homo sapiens, BB49-HNC;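 further: cell viability assay read-out, reported as inhibition of BB49-HNC cell growth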
Description: SANGER: Inhibition of human BB49-HNC cell growth in a cell viability assay.

MKN-7 = conditions: Homo sapiens, MKN-7;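 further: growth inhibition of MKN-7 cells, read out with a cell viability assay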
Description: SANGER: Inhibition of human MKN7 cell growth in a cell viability assay.

KURAMOCHI = conditions: Homo sapiens, KURAMOCHI;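 further: growth inhibition of KURAMOCHI cells, read out with a cell viability assay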
Description: SANGER: Inhibition of human KURAMOCHI cell growth in a cell viability assay.

NY = conditions: Homo sapiens, NY
Description: SANGER: Inhibition of human NY cell growth in a cell viability assay.

NCI-H1770 = conditions: Homo sapiens, NCI-H1770;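 further: growth inhibition of NCI-H1770 cells determined with a viability readout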
Description: SANGER: Inhibition of human NCI-H1770 cell growth in a cell viability assay.

BEN = conditions: Homo sapiens, BEN;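 further: growth inhibition of the BEN cell line, read out with a cell viability assay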
Description: SANGER: Inhibition of human BEN cell growth in a cell viability assay.

S-117 = conditions: Homo sapiens, S-117
Description: SANGER: Inhibition of human S-117 cell growth in a cell viability assay.

LN-405 = conditions: Homo sapiens, LN-405
Description: SANGER: Inhibition of human LN-405 cell growth in a cell viability assay.

`Cc1cn(-c2cc(NC(=O)c3ccc(C)c(Nc4nccc(-c5cccnc5)n4)c3)cc(C(F)(F)F)c2)cn1` [NILOTINIB] showed an IC50 (EGI-1) of over 2000 nM, an IC50 (COLO-741) of over 2000 nM and an IC50 (U-118-MG) of over 2000 nM. For the same compound, the IC50 (NCI-H1155) was over 2000 nM, the IC50 (ChaGo-K-1) was over 2000 nM and the IC50 (BHY) was over 2000 nM. The IC50 (NCI-H1355) was over 2000 nM, the IC50 (A101D) was over 2000 nM and the IC50 (Panc1005) was over 2000 nM. The IC50 (CAPAN-1) was over 2000 nM, the IC50 (LAN-6) was over 2000 nM and the IC50 (GI-ME-N) was over 2000 nM. It also gave an IC50 (KP-4) of over 2000 nM, an IC50 (LB1047-RCC) of over 2000 nM and an IC50 (NCI-H69) of over 2000 nM. The IC50 (HD-MY-Z) was over 2000 nM, the IC50 (NOS-1) was over 2000 nM and the IC50 (NCI-H1650) was over 2000 nM. For the same compound, the IC50 (A-375) was over 2000 nM, the IC50 (DU-4475) was over 2000 nM and the IC50 (Ca9-22) was over 2000 nM. The IC50 5637 was over 2000 nM, the IC50 (GP5d) was over 2000 nM and the IC50 (COR-L105) was over 2000 nM. It also gave an IC50 (WM-115) of over 2000 nM, an IC50 (NCI-H82) of over 2000 nM and an IC50 (NCI-H1623) of over 2000 nM. For the same compound, the IC50 (NCI-H1437) was over 2000 nM, the IC50 (RS4-11) was over 2000 nM and the IC50 (AGS) was over 2000 nM. The IC50 (NCI-H1573) was over 2000 nM, the IC50 (SCC-9) was over 2000 nM and the IC50 (BB49-HNC) was over 2000 nM. It also gave an IC50 (MKN-7) of over 2000 nM, an IC50 (KURAMOCHI) of over 2000 nM and an IC50 (NY) of over 2000 nM. The IC50 (NCI-H1770) was over 2000 nM, the IC50 (BEN) was over 2000 nM and the IC50 (S-117) was over 2000 nM. It also gave an IC50 (LN-405) of over 2000 nM.
Compound `Nc1cccc2c1CN(C1CCC(=O)NC1=O)C2=O` (stereo not given) [LENALIDOMIDE] has an IC50 (EGI-1) of over 5000 nM, an IC50 (COLO-741) of over 5000 nM and an IC50 (U-118-MG) of over 5000 nM. It also gave an IC50 (NCI-H1155) of over 5000 nM, an IC50 (ChaGo-K-1) of over 5000 nM and an IC50 (BHY) of over 5000 nM. For the same compound, the IC50 (NCI-H1355) was over 5000 nM, the IC50 (A101D) was over 5000 nM and the IC50 (Panc1005) was over 5000 nM. The IC50 (CAPAN-1) was over 5000 nM, the IC50 (LAN-6) was over 5000 nM and the IC50 (GI-ME-N) was over 5000 nM. It also gave an IC50 (KP-4) of over 5000 nM, an IC50 (LB1047-RCC) of over 5000 nM and an IC50 (NCI-H69) of over 5000 nM. The IC50 (HD-MY-Z) was over 5000 nM, the IC50 (NOS-1) was over 5000 nM and the IC50 (NCI-H1650) was over 5000 nM. For the same compound, the IC50 (A-375) was over 5000 nM, the IC50 (DU-4475) was over 5000 nM and the IC50 (Ca9-22) was over 5000 nM. It also gave an IC50 5637 of over 5000 nM, an IC50 (GP5d) of over 5000 nM and an IC50 (COR-L105) of over 5000 nM. It also gave an IC50 (WM-115) of over 5000 nM, an IC50 (NCI-H82) of over 5000 nM and an IC50 (NCI-H1623) of over 5000 nM. The IC50 (NCI-H1437) was over 5000 nM, the IC50 (RS4-11) was over 5000 nM and the IC50 (AGS) was over 5000 nM. For the same compound, the IC50 (NCI-H1573) was over 5000 nM, the IC50 (SCC-9) was over 5000 nM and the IC50 (BB49-HNC) was over 5000 nM. For the same compound, the IC50 (MKN-7) was over 5000 nM, the IC50 (KURAMOCHI) was over 5000 nM and the IC50 (NY) was over 5000 nM. The IC50 (NCI-H1770) was over 5000 nM, the IC50 (BEN) was over 5000 nM and the IC50 (S-117) was over 5000 nM. It also gave an IC50 (LN-405) of over 5000 nM.
`CO[C@H]1C[C@@H]2CC[C@@H](C)[C@@](O)(O2)C(=O)C(=O)N2CCCC[C@H]2C(=O)O[C@H]([C@H](C)C[C@@H]2CC[C@@H](OC(=O)C(C)(CO)CO)[C@H](OC)C2)CC(=O)[C@H](C)/C=C(\C)[C@@H](O)[C@@H](OC)C(=O)[C@H](C)C[C@H](C)/C=C/C=C/C=C/1C` [TEMSIROLIMUS] was tested, and the IC50 (EGI-1) was 22 nM, the IC50 (COLO-741) was over 200 nM and the IC50 (U-118-MG) was 16.7 nM. For the same compound, the IC50 (NCI-H1155) was 63.6 nM, the IC50 (ChaGo-K-1) was over 200 nM and the IC50 (BHY) was over 200 nM. It also gave an IC50 (NCI-H1355) of 55.9 nM, an IC50 (A101D) of 48.7 nM and an IC50 (Panc1005) of 155 nM. It also gave an IC50 (CAPAN-1) of over 200 nM, an IC50 (LAN-6) of over 200 nM and an IC50 (GI-ME-N) of over 200 nM. It also gave an IC50 (KP-4) of 116 nM, an IC50 (LB1047-RCC) of 63.1 nM and an IC50 (NCI-H69) of over 200 nM. It also gave an IC50 (HD-MY-Z) of 21.6 nM, an IC50 (NOS-1) of over 200 nM and an IC50 (NCI-H1650) of over 200 nM. For the same compound, the IC50 (A-375) was over 200 nM, the IC50 (DU-4475) was 11.7 nM and the IC50 (Ca9-22) was 96.6 nM. For the same compound, the IC50 5637 was over 200 nM, the IC50 (GP5d) was over 200 nM and the IC50 (COR-L105) was 54.5 nM. For the same compound, the IC50 (WM-115) was over 200 nM, the IC50 (NCI-H82) was 28.8 nM and the IC50 (NCI-H1623) was over 200 nM. For the same compound, the IC50 (NCI-H1437) was 103 nM, the IC50 (RS4-11) was 8.45 nM and the IC50 (AGS) was 14.1 nM. It also gave an IC50 (NCI-H1573) of over 200 nM, an IC50 (SCC-9) of over 200 nM and an IC50 (BB49-HNC) of over 200 nM. For the same compound, the IC50 (MKN-7) was over 200 nM, the IC50 (KURAMOCHI) was over 200 nM and the IC50 (NY) was over 200 nM. It also gave an IC50 (NCI-H1770) of over 200 nM, an IC50 (BEN) of 31.5 nM and an IC50 (S-117) of 105 nM. The IC50 (LN-405) was 135 nM.
